# Laboratory results published in patent US20190210996A1, “NOVEL COMPOUNDS” (GLAXOSMITHKLINE INTELLECTUAL PROPERTY DEVELOPMENT LIMITED, priority 2016, published 2019).
# How the values were obtained:
# BTK = biological target: T1, BTK (Homo sapiens, UniProt Q06187); experiment: Expression proteomics in THP-1 cells: BTK protein level; type: cell-based
# T1 construct: endogenous in cells; host or cells: THP-1
# Procedure: (§1) THP-1 cells were seeded at a concentration of 3×10^6 cells in T175 flasks with 60 mL growth medium (RPMI1640+10% FBS). […] of a 10× compound solution prepared in growth medium (DMSO), CEREBLON_PROTAC) was added and the cells were treated for the indicated time points (6 or 24 h) at 37° C., 5% CO2. For harvesting the cells were collected into falcon tubes on ice, centrifuged and washed twice in cold PBS (Life technologies). After the last washing step the supernatant was removed and the pellets were snap-frozen in liquid N2 and stored at −80° C. and lysed in 2% SDS for 3 min at 95° C. in a thermomixer (Thermo Fisher Scientific), followed by digestion of DNA with Benzonase at 37° C. for 1.5 h. Lysate was cleared by centrifugation an protein concentration in supernatant was determined by BCA assay.
# (§2) Leukemia 25, 89-100 (2011).
# (§3) Samples were dried in vacuo and resuspended in 0.05% trifluoroacetic acid in water. Of the sample, 50% was injected into an Ultimate3000 nanoRLSC (Dionex, Sunnyvale, Calif.) coupled to a Q Exactive HF (Thermo Fisher Scientific). Peptides were trapped on a 5 mm×300 μm C18 column (Pepmap100, 5 μm, 300 Å, Thermo Fisher Scientific) in water with 0.05% TFA at 60° C. Separation was performed on custom 50 cm×[…] (ID) reversed-phase columns (Reprosil) at 55° C. Gradient elution was performed from 2% acetonitrile to 40% acetonitrile in 0.1% formic acid and 3.5% DMSO over 2 hours. Samples were online injected into Q-Exactive HF mass spectrometers operating with a data-dependent top 10 method. MS spectra were acquired by using 60.000 resolution and an ion target of 3×10^6. Higher energy collisional dissociation (HCD) scans were performed with 35% NCE at 30.000 resolution (at m/z 200), and the ion target settings was set to 2×10^5 so as to avoid coalescence (Werner, T. et al. Ion Coalescence of Neutron Encoded TMT 10-Plex Reporter Ions. Anal. Chem. 86, 3594-3601 (2014).
# (§4) The first search was performed with 30 parts per million mass tolerance for peptide precursors and 30 mD (HCD) mass tolerance for fragment ions followed by a final search using recalibrated data with a 10 parts per million mass tolerance for peptide precursors and 20 mD (HCD) mass tolerance for fragment ions. Carbamidomethylation of cysteine residues and TMT modification of lysine residues were set as fixed modifications and methionine oxidation, and N-terminal acetylation of proteins and TMT modification of peptide N-termini were set as variable modifications. […]
# (§5) Nat Biotech 29, 255-265 (2011). this measure is referred to as ion area Savitski, M. M. et al. Delayed Fragmentation and Optimized Isolation Width Settings for Improvement of Protein Identification and Accuracy of Isobaric Mass Tag Quantification on Orbitrap-Type Mass Spectrometers. […]
# LATS1 = biological target: T2, LATS1 (Homo sapiens, UniProt O95835); experiment: Expression proteomics in THP-1 cells: LATS1 protein level; type: cell-based; conditions: LATS1, THP-1 cells
# T2 construct: endogenous in cells; host or cells: THP-1
# T2 sequence (O95835 1-1130): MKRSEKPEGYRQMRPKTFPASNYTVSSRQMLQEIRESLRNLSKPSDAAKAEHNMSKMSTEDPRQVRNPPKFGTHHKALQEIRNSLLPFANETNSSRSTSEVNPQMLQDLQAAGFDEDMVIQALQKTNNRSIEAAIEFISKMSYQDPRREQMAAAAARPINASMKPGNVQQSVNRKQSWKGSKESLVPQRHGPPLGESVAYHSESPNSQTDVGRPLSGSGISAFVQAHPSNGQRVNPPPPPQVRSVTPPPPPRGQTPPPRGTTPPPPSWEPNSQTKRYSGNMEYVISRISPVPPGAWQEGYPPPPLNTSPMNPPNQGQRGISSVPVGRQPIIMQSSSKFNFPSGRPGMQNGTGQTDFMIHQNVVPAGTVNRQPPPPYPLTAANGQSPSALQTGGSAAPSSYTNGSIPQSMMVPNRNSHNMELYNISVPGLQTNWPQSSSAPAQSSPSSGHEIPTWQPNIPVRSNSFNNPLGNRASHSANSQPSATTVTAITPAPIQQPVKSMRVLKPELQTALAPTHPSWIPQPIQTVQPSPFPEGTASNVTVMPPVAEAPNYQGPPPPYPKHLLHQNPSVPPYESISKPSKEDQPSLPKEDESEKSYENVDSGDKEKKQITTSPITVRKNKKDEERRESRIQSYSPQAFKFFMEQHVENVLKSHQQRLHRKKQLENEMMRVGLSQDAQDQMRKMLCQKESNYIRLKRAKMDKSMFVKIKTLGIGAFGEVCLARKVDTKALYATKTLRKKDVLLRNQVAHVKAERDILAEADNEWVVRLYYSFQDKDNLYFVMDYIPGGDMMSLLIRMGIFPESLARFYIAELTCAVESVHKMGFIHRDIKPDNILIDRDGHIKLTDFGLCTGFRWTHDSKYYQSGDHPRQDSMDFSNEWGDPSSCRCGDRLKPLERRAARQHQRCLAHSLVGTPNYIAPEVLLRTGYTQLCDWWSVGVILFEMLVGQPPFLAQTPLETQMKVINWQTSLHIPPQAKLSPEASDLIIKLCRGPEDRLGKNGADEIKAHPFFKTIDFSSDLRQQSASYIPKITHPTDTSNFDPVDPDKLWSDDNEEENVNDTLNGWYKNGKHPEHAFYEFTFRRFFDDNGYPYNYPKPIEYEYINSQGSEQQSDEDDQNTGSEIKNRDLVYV
# Procedure: as §1, §2, §3, §4, §5
# T1 sequence (Q06187 whole entry): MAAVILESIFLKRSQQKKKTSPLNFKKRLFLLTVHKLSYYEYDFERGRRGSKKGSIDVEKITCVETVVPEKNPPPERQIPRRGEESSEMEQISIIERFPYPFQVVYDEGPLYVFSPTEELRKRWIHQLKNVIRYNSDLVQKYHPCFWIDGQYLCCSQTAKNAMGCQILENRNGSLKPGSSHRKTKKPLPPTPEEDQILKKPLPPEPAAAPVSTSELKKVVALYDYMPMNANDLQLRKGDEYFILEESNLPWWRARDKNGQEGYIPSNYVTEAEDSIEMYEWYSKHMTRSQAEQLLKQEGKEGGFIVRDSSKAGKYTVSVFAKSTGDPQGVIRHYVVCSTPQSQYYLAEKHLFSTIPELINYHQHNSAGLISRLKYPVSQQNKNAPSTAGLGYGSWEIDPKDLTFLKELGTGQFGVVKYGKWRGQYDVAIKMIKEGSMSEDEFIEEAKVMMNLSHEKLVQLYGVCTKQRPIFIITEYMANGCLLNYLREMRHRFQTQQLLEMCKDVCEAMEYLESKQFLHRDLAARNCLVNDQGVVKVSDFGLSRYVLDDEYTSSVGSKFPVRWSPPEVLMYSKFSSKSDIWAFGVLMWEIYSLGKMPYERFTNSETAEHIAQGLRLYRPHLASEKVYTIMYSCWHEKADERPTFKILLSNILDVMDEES
smiles,measurement,setting,value
"CNC(=O)c1ccccc1Nc1nc(Nc2ccc(N3CCN(CCOCCOCCOCCOCC(=O)Nc4cccc5c4CN(C4CCC(=O)NC4=O)C5=O)CC3)cc2)ncc1Cl.O=CO (centres unmarked) [CEREBLON_PROTAC, 14-(4-(4-((5-Chloro-4-((2-(methylcarbamoyl)phenyl)amino)pyrimidin-2-yl)amino)phenyl)piperazin-1-yl)-N-(2-(2,6-dioxopiperidin-3-yl)-1-oxoisoindolin-4-yl)-3,6,9,12-tetraoxatetradecan-1-amide formate]",log2 rel. fc. to vehicle control,"BTK; 24 h 0.1 μM, n = 1",−1.65
same,log2 rel. fc. to vehicle control,"BTK; 24 h 0.1 μM, n = 2",−1.67
same,log2 rel. fc. to vehicle control,"BTK; 24 h 1 μM, n = 1",−2.02
same,log2 rel. fc. to vehicle control,"BTK; 24 h 1 μM, n = 2",−1.86
same,log2 rel. fc. to vehicle control,"LATS1; 24 h 0.1 μM, n = 1",−1.02
same,log2 rel. fc. to vehicle control,"LATS1; 24 h 0.1 μM, n = 2",−1.01
same,log2 rel. fc. to vehicle control,"LATS1; 24 h 1 μM, n = 1",−1.46
same,log2 rel. fc. to vehicle control,"LATS1; 24 h 1 μM, n = 2",−1.55
